Source: patent US9480655B2, “Solid pharmaceutical dosage form of dolutegravir” (ratiopharm GmbH, priority 2013, dated 2016)
Where a name gives a salt, the structure may show the parent alone. Read-outs that look alike come from different tables or passages of the source. One block for each molecule: values may come before it.

Experiment: Solubility of dolutegravir and its salts in aqueous media
Type: physicochemical
Protocol: At an increasing pH, for example to pH 6.8 in 50 mM KH2PO4 the solubility of the sodium salt of dolutegravir slightly increases but the salt still remains very slightly soluble (1-0.1 mg/ml), only. Due to this very low solubility of the active ingredient the tablets known from WO2006/116764 are of little practical use because the active ingredient will hardly dissolve in the intestine resulting in a low bioavailability.
Dolutegravir may be present in the solid pharmaceutical dosage form in its non-salt form or any pharmaceutically acceptable salt or solvate thereof. Suitable pharmaceutically acceptable salts are known to the skilled person. For example, dolutegravir may be present as alkali metal salt, such as dolutegravir sodium or dolutegravir potassium. The potassium salt being preferred.

solubility (medium not stated): practically insoluble
Compound: C[C@@H]1CCO[C@H]2Cn3cc(C(=O)NCc4ccc(F)cc4F)c(=O)c(O)c3C(=O)N12 [Dolutegravir, (4R,12aS)-N-(2,4-difluorobenzyl)-7-hydroxy-4-methyl-6,8-dioxo-3,4,6,8,12,12a-hexahydro-2H-pyrido[1′,2′:4,5]pyrazino[2,1-b][1,3]oxazine-9-carboxamide]

solubility relative to the sodium salt: more soluble than the sodium salt
Compound: C[C@@H]1CCO[C@H]2Cn3cc(C(=O)NCc4ccc(F)cc4F)c(=O)c(O)c3C(=O)N12 [potassium salt]

solubility (aqueous buffer, pH 6.8 in 50 mM KH2PO4, read-out: solubility): 0.1 to 1 mg/mL
solubility (simulated gastric fluid, 0.1 N HCl (pH 1.2), read-out: solubility): < 0.1 mg/mL
Compound: C[C@@H]1CCO[C@H]2Cn3cc(C(=O)NCc4ccc(F)cc4F)c(=O)c(O)c3C(=O)N12 [sodium salt of dolutegravir]
